Source: patent publication US6849661B2, “Treatment of abnormal increases in gastrointestinal motility with (R)-verapamil” (AGI Therapeutics, Ltd., priority 2002, dated 2005)
Values joined by “and” are separate entries in the source; they are usually repeats but may differ in a detail not shown here. Equal entries are not always repeated. Where two headings read alike, the source gives them in different places.

Experiments:
[1] = system: rat aortic tissue; settings: for pIC50 (−log M), Aorta / IC50: KCl 80 mM contracted rat aorta; for IC50: read-out: IC50 (M), Aorta
Description: (§1) Rat aortic tissue was prepared and mounted in a tissue bath by standard methods familiar to those skilled in the art. The physiological medium contained KCl at a concentration of 80 mM, which produces contractions of the aortic tissue.

[2] = system: rat vas prostatic tissue; test: Contractions to electrical stimulation in rat vas deferens, prostatic portion; format: cell-based; settings: FIG. 3
Source text: (§2) In rat vas deferens there are two components to nerve stimulation, an […] component, dominant in the epididymal portion, and a non-adrenergic (purinergic) component, dominant in the prostatic portion. […] (Brown et al., Br J Pharmacol., 79:379-393, 1983).

[3] = system: rat colon tissue; test: Relaxation of KCl (80 mM)-induced contractions in rat colon tissue (tissue bath); format: cell-based; settings: for IC50 / pIC50 (−log M), Colon: KCl 80 mM contracted rat colon
Description: as §1, with “colon” for “aortic”, “tissue. […] Potency was expressed as the concentration producing 50% of […] (IC50) or as the negative logarithm of the IC50 (pIC50).” for “tissue.”
Other compounds were tested for their ability to relax the KCl contractions, or block the relaxing action of verapamil.

[4] = system: rat vas epididymal tissue; test: Contractions in rat vas deferens, epididymal portion (in the presence of nifedipine); format: cell-based; settings: high concentrations, FIG. 3
Source text: as §2

| Compound | pIC50 (−log M), Aorta [1] | IC50 [1] | effect on contractions to electrical stimulation in vas prostatic tissue [2] | IC50 [3] [nM] | pIC50 (−log M), Colon [3] | effect on epididymal contraction [4] | ability to relax the KCl contractions ([3]; rat colon) | also measured |
| --- | --- | --- | --- | --- | --- | --- | --- | --- |
| COc1ccc(CCN(C)CCC[C@](C#N)(c2ccc(OC)c(OC)c2)C(C)C)cc1OC [(R)-verapamil] | 5.35±0.24 −log M | 4.47e-06 M and 4.78e-06 M | neither (R)-verapamil nor (S)-verapamil abolished contractions | 851 | 6.07±0.16 −log M | reduced this epididymal contraction |  | pIC50 (−log M), Aorta ([1]; listed as R Isomer): 5.35 −log M; times less potent than (S)-verapamil in the aorta ([1]; rat aorta): 10 times; IC50 ([1]; listed as R Isomer): 4.47e-06 M; pIC50 (−log M), Colon ([3]; listed as R Isomer): 6.07 −log M; times less potent than (S)-verapamil in the intestine ([3]; rat colon): three |
| COc1ccc(CCN(C)CCC[C@@](C#N)(c2ccc(OC)c(OC)c2)C(C)C)cc1OC [(S)-verapamil] | 6.32±0.03 −log M | 4.78e-07 M | neither (R)-verapamil nor (S)-verapamil abolished contractions | 295 | 6.53±0.13 −log M and 6.32±0.03 −log M | reduced this epididymal contraction |  | times more potent than (R)-verapamil in colon ([3]; rat colon, concentrations tested 1-100 μM): approximately 3 times |
| COc1ccc(Cl)cc1C(=O)NCCc1ccc(S(=O)(=O)NC(=O)NC2CCCCC2)cc1 [Glibenclamine] |  |  |  |  |  |  |  | ability to block the relaxing action of verapamil on KCl contractions ([3]; rat colon): did not block the verapamil-induced relaxations |
| COc1cc2nc(N3CCN(C(=O)c4ccco4)CC3)nc(N)c2cc1OC [Prazosin] |  |  |  |  |  |  | did not significantly relax KCl contractions |  |
| Cc1cccc(C)c1N=C1NCCCS1 [Xylazine] |  |  |  |  |  |  | small relaxation of the contractions, but only at the highest concentration tested (10^−4M) |  |
